Experimental data as given in patent US20250204528A1, “USE OF 2-AMINO-3-INDOLYL BUTYRIC ACID OR 3-METHYLPYRROLIDINE-2-CARBOXYLIC ACID AS PLANT IMMUNITY ELICITOR” (NANJING TIANNONG BIOTECHNOLOGY CO., LTD, priority 2021, published 2025).
Several values for one entry are separate records, joined by “and”; a condition that tells them apart may be missing. Identical values can stand only once.

Tests used:
hydroponic wheat = assay: Wheat under drought stress (25% PEG-6000); format: in vivo; details: for Drought damage index (%) / Dry weight(g) Overground part / Dry weight(g) Underground part / Fresh weight (g) Overground part / Fresh weight (g) Underground part / Root length (cm): 25% PEG-6000 6 d, recovery 7 d; for Drought damage index reduced by / Fresh weight of the overground part improved by / Fresh weight of the underground part improved by / Root length of the wheat seedlings increased by: compared with the control group
Procedure: A 6-mesh sieve was used as a container to hydroponic wheat, 50 grains were sieved each time, a ½ Hoagland nutrient solution was replaced every other two days, a 2-amino-3-indolyl butyric acid solution was sprayed on the leaf surfaces when the wheat grew to a stage of two true leaves and one terminal bud, wherein the concentrations of 2-amino-3-indolyl butyric acid were 0 nm, 100 nm and 1,000 nm, and meanwhile, 0.02% of Tween-20 was added as a surfactant. After continuously spraying for two days, on the third day, the hydroponic nutrient solution was replaced with a ½ Hoagland nutrient solution containing 25% PEG-6000 to perform a stress treatment, a rehydration treatment was performed after the drought stress for 6 d, the wheat recovered to grow for 7 d in a normal nutrient solution, a drought damage index was observed and determined, and the root length and biomass were determined.
The performance characteristics of the leaves subjected to the drought damage were similar to those of the leaves subjected to a salt damage. The drought damage rate and the drought damage index were introduced by using the evaluation index of the salt damage, a drought damage index formula was as follows, and the drought damage grading standard was shown in table 16.

[1] = tested on: tomato spotted wilt viruses; assay: Induction of tobacco against infection by tomato spotted wilt viruses; format: in vivo, Nicotiana benthamiana; details: for Disease index / Relative immune effect (%): tobacco; for Disease indexes of the tobacco / Relative immune effects: each treatment in concentration range 0.1-10 nm; for Content of virus proteins: relative protein content in leaves after 3 d, Western blot/Image J
Procedure: Tomato spotted wilt viruses were taken from Yunnan province of China. An initial virus source was placed in a refrigerator at −80° C. for storage and activated by inoculation on Nicotiana benthamiana leaves by using a friction inoculation. Virus plasmids were extracted for transformation of Escherichia coli competent cells. The bacteria were coated on a resistant plate for culture, single colonies were selected for PCR screening, and positive colonies were selected for sequencing and subsequent plasmid extraction. The plasmids with normal sequencing were added into Agrobacterium competent cells and subjected to the Agrobacterium transformation by using an electric shock method. The transformed Agrobacterium liquid was coated on a screening plate with corresponding resistance and cultured at 28±1° C. for 48 h. Single colonies of the Agrobacterium on the transformation plate were selected, placed in a 5-mL LB medium containing the corresponding resistance and cultured overnight at 28° C. and 180 rpm. The bacteria were collected by centrifugation at 6,000 rpm for 2 min, suspended in an Agrobacterium treatment buffer (10 mM MgCl2, 10 mM MES and 10 μM acetosyringone) to enable the OD600 value of the suspension to be 0.5, and treated in a dark place at 28° C. for 3 h for later use.
2-amino-3-indolyl butyric acid was dissolved in distilled water and gradiently diluted with distilled water to obtain solutions of 0 nM, 0.1 nM, 1 nM and 10 nM. Nicotiana benthamiana seeds were sown in a small pot, illuminated at 22±1° C. for 12 h/12 h, and cultured for 5 weeks. Healthy tobacco plants (preferably 8-10 leaves) were selected and sprayed with the 2-amino-3-indolyl butyric acid solutions at the above concentrations on stems and leaves. The treatment was repeated once every 24 h and a total of two treatments was performed. After 24 h, the Agrobacterium liquid with the uniform concentration was extracted by using a 1 mL injector, an injection port of the injector was directly pressed on a small hole on the back of the tobacco leaves, and the bacterium liquid was slowly injected to infiltrate the whole leaves. The infiltrated tobacco was transferred to the environment at 22±1° C. and with 12 h/12 h illumination for culturing. The tobacco was observed and recorded by a microscope after 3 d. Meanwhile, the sample was taken, the gray levels of protein bands were analyzed by using Western blot combined with an Image J software, and the relative protein content of the viruses in the leaves was determined. The disease condition of the tobacco leaves was observed after 15 d and the disease index was recorded according to GB/T23222-2008 Grade and investigation method of tobacco diseases and insect pests. The formula was as follows: […]
Grading standard of diseases caused by tomato spotted wilt viruses (grading and investigation by taking plants as units): • grade 0: the whole plants were disease-free; • grade 1: the veins of interior leaves were obvious or leaves were slightly spotted, and the diseased plants were not obviously dwarfed; • grade 3: one third leaves were spotted but not deformed, or the plants were dwarfed to the heights of more than three fourths of those of normal plants; • grade 5: one third to one half leaves were spotted, or a few leaves were deformed, or main veins were blackened, or the plants were dwarfed to the heights of two thirds to three fourths of those of the normal plants; • grade 7: one half to two thirds leaves were spotted or deformed, or a few main lateral veins were necrotic, or the plants were dwarfed to the heights of one half to two thirds of those of the normal plants; and • grade 9: the leaves of the whole plates were spotted, severely deformed or necrotic, or the diseased plants were dwarfed to the heights of […] of those of the normal plants.

[2] = tested on: wheat powdery mildew fungus; assay: Induction of wheat against infection by powdery mildew fungi (greenhouse pots); format: in vivo, wheat (NAU0686); details: for Disease index of the susceptible wheat / Relative immune effect: concentration greater than 1,000 nm
Procedure: […] A blank control was additionally set. After germination of wheat (NAU0686) seeds was accelerated, the wheat was planted in a sterilized soil culture bowl and cultured in a greenhouse at 23±1° C. with the illumination for 12 h. When the seedlings grew to a stage of one true leaf and one terminal bud, the wheat seedlings were sprayed with the 2-amino-3-indolyl butyric acid solutions at the above concentrations on stems and leaves. The treatment was repeated once every 24 h and a total of two treatments was performed. Fresh wheat powdery mildew fungus spores were evenly scattered on the wheat leaves after 24 h. 3 pots of the plants were treated each time with 20 plants in each pot. After 10 d, the disease grade of the wheat after each treatment was investigated. The disease degree was recorded according to the wheat powdery mildew grading standard in the Guidelines for Field Efficacy Trials of Pesticides (I), and the disease indexes and the relative immune effects were calculated by using the same calculation formula as that of those of the tomato spotted wilt.
Grading standard of wheat powdery mildew (taking leaves as units): • grade 1: the area of the disease spots accounted 5% or less of that of the whole leaves; • grade 3: the area of the disease spots accounted for 6%-15% of that of the whole leaves; and • grade 5: the area of the disease spots accounted for 16%-25% of that of the whole leaves; and • grade 7: the area of the disease spots accounted for 26%-50% of that of the whole leaves; and • grade 9: the area of the disease spots accounted for 50% or more of that of the whole leaves.

[3] = 10 nm, as printed with % in summary
[4] = treatment concentration 0.1 nm, 15 d after inoculation
[5] = treatment concentration 1 nm, 15 d after inoculation
[6] = treatment concentration 10,000 nm

CC1CCNC1C(=O)O (stereo not drawn) [3-methylpyrrolidine-2-carboxylic acid]
Drought damage index (%) (hydroponic wheat; 100 nm): 39%
Dry weight(g) Overground part (hydroponic wheat; 100 nm): 0.98 ± 0.07b g
Dry weight(g) Underground part (hydroponic wheat; 100 nm): 0.47 ± 0.05b g
Fresh weight (g) Overground part (hydroponic wheat; 100 nm): 7.83 ± 0.10b g
Fresh weight (g) Underground part (hydroponic wheat; 100 nm): 3.85 ± 0.05b g
Root length (cm) (hydroponic wheat; 100 nm): 14.50 ± 0.21b cm
Drought damage index (%) (hydroponic wheat; 1,000 nm): 20%
Dry weight(g) Overground part (hydroponic wheat; 1,000 nm): 1.11 ± 0.06a g
Dry weight(g) Underground part (hydroponic wheat; 1,000 nm): 0.55 ± 0.03a g
Fresh weight (g) Overground part (hydroponic wheat; 1,000 nm): 9.12 ± 0.13a g
Fresh weight (g) Underground part (hydroponic wheat; 1,000 nm): 4.67 ± 0.11a g
Root length (cm) (hydroponic wheat; 1,000 nm): 15.03 ± 0.31a cm
Drought damage index reduced by (hydroponic wheat; 1,000 nm): 61%
Fresh weight of the overground part improved by (hydroponic wheat; 1,000 nm): 44.08%
Fresh weight of the underground part improved by (hydroponic wheat; 1,000 nm): 36.55%
Root length of the wheat seedlings increased by (hydroponic wheat; 1,000 nm): 12.58%
Disease index [1, 3]: 21.44%
Disease indexes of the tobacco [1]: lower than 50
Relative immune effects [1]: ≥ 50%
Content of virus proteins ([1]; treatment concentration 0.1 nm): 0.37 ± 0.003b
Relative immune effect (%) ([1]; treatment concentration 0.1 nm): 50.84%
Disease index [1, 4]: 41.31 ± 0.34b
Content of virus proteins ([1]; treatment concentration 1 nm): 0.24 ± 0.001c
Relative immune effect (%) ([1]; treatment concentration 1 nm): 68.43%
Disease index [1, 5]: 27.89 ± 2.16c
Relative immune effect (%) ([1]; treatment concentration 10 nm): 75.73%
Disease index of the susceptible wheat [2]: lower than 50
Relative immune effect [2]: exceeded 50%
Relative immune effect (%) ([2]; treatment concentration 10 nm): 25.04%
Relative immune effect (%) ([2]; treatment concentration 100 nm): 43.73%
Relative immune effect (%) [2, 6]: 68.57%

CC(c1c[nH]c2ccccc12)C(N)C(=O)O (stereo not drawn)
Drought damage index (%) (hydroponic wheat; 100 nm): 44%
Dry weight(g) Overground part (hydroponic wheat; 100 nm): 0.82 ± 0.01b g
Dry weight(g) Underground part (hydroponic wheat; 100 nm): 0.35 ± 0.01a g
Fresh weight (g) Overground part (hydroponic wheat; 100 nm): 7.28 ± 0.05b g
Fresh weight (g) Underground part (hydroponic wheat; 100 nm): 3.66 ± 0.01b g
Root length (cm) (hydroponic wheat; 100 nm): 13.97 ± 0.03a cm
Drought damage index (%) (hydroponic wheat; 1,000 nm): 24%
Dry weight(g) Overground part (hydroponic wheat; 1,000 nm): 0.90 ± 0.05a g
Dry weight(g) Underground part (hydroponic wheat; 1,000 nm): 0.38 ± 0.01a g
Fresh weight (g) Overground part (hydroponic wheat; 1,000 nm): 8.87 ± 0.09a g
Fresh weight (g) Underground part (hydroponic wheat; 1,000 nm): 4.51 ± 0.02a g
Root length (cm) (hydroponic wheat; 1,000 nm): 14.60 ± 0.01a cm
Drought damage index reduced by (hydroponic wheat; 1,000 nm): 44%
Fresh weight of the overground part improved by (hydroponic wheat; 1,000 nm): 44.93%
Fresh weight of the underground part improved by (hydroponic wheat; 1,000 nm): 54.98%
Root length of the wheat seedlings increased by (hydroponic wheat; 1,000 nm): 10.86%
Disease index [1, 3]: 30.42%
Disease indexes of the tobacco [1]: lower than 50
Relative immune effects [1]: ≥ 45%
Content of virus proteins ([1]; treatment concentration 0.1 nm): 0.41 ± 0.005b
Relative immune effect (%) ([1]; treatment concentration 0.1 nm): 46.68%
Disease index [1, 4]: 49.70 ± 1.51b
Content of virus proteins ([1]; treatment concentration 1 nm): 0.32 ± 0.014c
Relative immune effect (%) ([1]; treatment concentration 1 nm): 56.11%
Disease index [1, 5]: 40.91 ± 3.14c
Relative immune effect (%) ([1]; treatment concentration 10 nm): 67.36%
Disease index of the susceptible wheat [2]: lower than 50
Relative immune effect [2]: exceeded 50%
Relative immune effect (%) ([2]; treatment concentration 10 nm): 22.04%
Relative immune effect (%) ([2]; treatment concentration 100 nm): 32.59%
Relative immune effect (%) ([2]; treatment concentration 1,000 nm): 53.58%
Relative immune effect (%) [2, 6]: 68.42% and 68.43%
